Consider 35 molecules from patent US11479551B2, “MTA-cooperative PRMT5 inhibitors” (Mirati Therapeutics, Inc., priority 2019, dated 2022).

By IC50 is commonly meant the concentration that inhibits the measured activity by half.

The assay addresses PRMT5/MEP50 complex (Homo sapiens (Human), UniProt O14744). The assay is described as follows: PRMT5:MEP50 FlashPlate Assay (histone H4 peptide substrate, plus and minus MTA). Type of assay: biochemical. How it is done: The PRMT5 inhibitory activity of compounds of the present invention was determined using either a PRMT5:MEP50 FlashPlate Assay (Reaction Biology Corporation) or a PRMT5:MEP50 HotSpot Assay (Reaction Biology Corporation).
1. PRMT5:MEP50 FlashPlate Assay

Where [1] appears, read: IC50 + 2 μM MTA (nM), in the presence of 2 μM MTA.
[2] abbreviates: in the absence of MTA, read-out: IC50.

Where two headings read alike, the source gives them in different places.

Chain of PRMT5/MEP50 complex (O14744 2-637): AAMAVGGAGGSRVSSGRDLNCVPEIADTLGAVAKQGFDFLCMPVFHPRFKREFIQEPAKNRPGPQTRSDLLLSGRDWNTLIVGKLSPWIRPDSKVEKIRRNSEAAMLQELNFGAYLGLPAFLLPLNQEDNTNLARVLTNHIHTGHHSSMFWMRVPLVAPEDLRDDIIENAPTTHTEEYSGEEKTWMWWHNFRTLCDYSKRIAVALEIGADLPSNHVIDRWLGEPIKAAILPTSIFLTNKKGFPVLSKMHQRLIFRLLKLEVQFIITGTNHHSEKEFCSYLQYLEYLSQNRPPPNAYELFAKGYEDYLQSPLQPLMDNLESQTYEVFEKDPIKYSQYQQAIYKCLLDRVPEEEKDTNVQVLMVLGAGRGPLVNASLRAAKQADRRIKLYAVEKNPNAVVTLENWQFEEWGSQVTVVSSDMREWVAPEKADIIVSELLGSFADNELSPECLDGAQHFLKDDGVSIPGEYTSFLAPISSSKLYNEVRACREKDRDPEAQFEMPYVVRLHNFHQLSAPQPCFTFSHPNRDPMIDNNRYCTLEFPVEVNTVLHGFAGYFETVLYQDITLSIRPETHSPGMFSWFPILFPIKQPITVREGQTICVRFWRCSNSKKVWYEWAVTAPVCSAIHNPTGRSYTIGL
Chain of PRMT5/MEP50 complex (Q9BQA1 2-342 partner): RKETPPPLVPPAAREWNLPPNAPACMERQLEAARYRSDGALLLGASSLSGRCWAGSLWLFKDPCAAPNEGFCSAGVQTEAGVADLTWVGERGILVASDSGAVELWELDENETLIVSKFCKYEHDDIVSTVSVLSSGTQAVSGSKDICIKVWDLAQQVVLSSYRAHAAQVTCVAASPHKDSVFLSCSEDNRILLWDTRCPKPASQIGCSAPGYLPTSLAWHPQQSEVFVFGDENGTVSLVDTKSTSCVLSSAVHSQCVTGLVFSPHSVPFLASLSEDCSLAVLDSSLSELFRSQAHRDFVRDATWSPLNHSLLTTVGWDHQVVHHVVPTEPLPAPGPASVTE

`NCc1n[nH]c(=O)c2ccc(-c3cncc(S(=O)(=O)c4ccccc4)c3)cc12` [Example 4-52, 4-(aminomethyl)-6-(5-(phenylsulfonyl)pyridin-3-yl)phthalazin-1(2H)-one]: the IC50 came out at 18 nM under setting [1] and 669 nM under setting [2].

Take `NCc1n[nH]c(=O)c2ccc(-c3cnn4c3CN(C(=O)C3CCCC3)CC4)cc12` [Example 4-87, 4-(aminomethyl)-6-(5-(cyclopentanecarbonyl)-4,5,6,7-tetrahydropyrazolo[1,5-a]pyrazin-3-yl)phthalazin-1(2H)-one]: the IC50 by setting is: under setting [1], 22 nM; under setting [2], 1590 nM.

For the molecule `N#Cc1c[nH]c2ncc(-c3ccc4c(=O)[nH]nc(CN)c4c3)cc12` [Example 4-41, 5-(4-(aminomethyl)-1-oxo-1,2-dihydrophthalazin-6-yl)-1H-pyrrolo[2,3-b]pyridine-3-carbonitrile], the IC50 is 56 nM under setting [1] and 4810 nM under setting [2].

Turning to `NCc1n[nH]c(=O)c2ccc(-c3cncs3)cc12` [Example 3-1, 4-(aminomethyl)-6-(thiazol-5-yl)phthalazin-1(2H)-one], the half-inhibitory concentration (IC50) stood at 3700 nM under setting [1] and 89600 nM under setting [2].

In the case of `Cc1ncc(-c2ccc3c(=O)[nH]nc(CN)c3c2)cn1` [Example 3-11, 4-(aminomethyl)-6-(2-methylpyrimidin-5-yl)phthalazin-1(2H)-one], the IC50 worked out at 5000 nM under setting [1] and 131000 nM under setting [2].

`NCc1n[nH]c(=O)c2ccc(-c3cnc4ccc(Cl)cn34)cc12` [Example 4-34, 4-(aminomethyl)-6-(6-chloroimidazo[1,2-a]pyridin-3-yl)phthalazin-1(2H)-one]: the IC50 reads like this: under setting [1], 110 nM; under setting [2], 2800 nM.

Take `NCc1n[nH]c(=O)c2ccc(-c3ccc(C(F)(F)F)nc3)cc12` [Example 3-8, 4-(aminomethyl)-6-(6-(trifluoromethyl)pyridin-3-yl)phthalazin-1(2H)-one]: the IC50 by setting is: under setting [1], over 1e+06 nM; under setting [2], over 1e+06 nM.

Consider `NCc1n[nH]c(=O)c2ccc(C3CCOC3)cc12` (racemic) [Example 5-2, (R,S)-4-(aminomethyl)-6-(THF-3-yl)phthalazin-1(2H)-one], for which the IC50 is, setting by setting: under setting [1], 57000 nM; under setting [2], over 100000 nM.

For the molecule `N#Cc1ccc(Cl)cc1-c1cncc(-c2ccc3c(=O)[nH]nc(CN)c3c2)c1` [Example 8-6, 2-(5-(4-(aminomethyl)-1-oxo-1,2-dihydrophthalazin-6-yl)pyridin-3-yl)-4-chlorobenzonitrile], the IC50 worked out at 52 nM under setting [1] and 2140 nM under setting [2].

Consider `NCc1n[nH]c(=O)c2ccc(-c3cncc(OC(F)F)c3)cc12` [Example 3-51, 4-(aminomethyl)-6-(5-(difluoromethoxy)pyridin-3-yl)phthalazin-1(2H)-one], for which the IC50 amounted to 500 nM under setting [1] and 11100 nM under setting [2].

With `NCc1n[nH]c(=O)c2ccc(-c3cnn4c3CN(C3CC3)CC4)cc12` [Example 4-82, 4-(aminomethyl)-6-(5-cyclopropyl-4,5,6,7 tetrahydropyrazolo[1,5-a]pyrazin-3-yl)phthalazin-1(2H)-one], the IC50 reads like this: under setting [1], 28 nM; under setting [2], 1340 nM.

Take `NCc1n[nH]c(=O)c2ccc(-c3cncc(F)c3)cc12` [Example 3-41, 4-(aminomethyl)-6-(5-fluoropyridin-3-yl)phthalazin-1(2H)-one]: the IC50 reads like this: under setting [1], 1600 nM; under setting [2], 27500 nM.

Regarding `NCc1n[nH]c(=O)c2ccc(-c3cncc(Oc4ccc(Cl)cc4)c3)cc12` [Example 7-4, 4-(aminomethyl)-6-(5-(4-chlorophenoxy)pyridin-3-yl)phthalazin-1(2H)-one], the IC50 was 5.6 nM under setting [1] and 151 nM under setting [2].

As to `COc1c(-c2ccc3c(=O)[nH]nc(CN)c3c2)cnn1C` [Example 4-48, 4-(aminomethyl)-6-(5-methoxy-1-methyl-1H-pyrazol-4-yl)phthalazin-1(2H)-one], the IC50 is, setting by setting: under setting [1], 22 nM; under setting [2], 750 nM.

`N#Cc1cc(Cl)ccc1-c1cncc(-c2ccc3c(=O)[nH]nc(CN)c3c2)c1` [Example 8-4, 2-(5-(4-(aminomethyl)-1-oxo-1,2-dihydrophthalazin-6-yl)pyridin-3-yl)-5-chlorobenzonitrile]: the IC50 was 3.1 nM under setting [1] and 313 nM under setting [2].

On to `NCc1n[nH]c(=O)c2ccc(-c3cncc(Cc4ccccc4)c3)cc12` [Example 4-50, 4-(aminomethyl)-6-(5-benzylpyridin-3-yl)phthalazin-1(2H)-one], for which the IC50 was 22 nM under setting [1] and 456 nM under setting [2].

In the case of `NCc1n[nH]c(=O)c2ccc(-c3cnc4cnccn34)cc12` [Example 4-25, 4-(aminomethyl)-6-(imidazo[1,2-a]pyrazin-3-yl)phthalazin-1(2H)-one], the IC50 under setting [1] was determined as 1700 nM and the IC50 under setting [2] is over 100000 nM.

With `COc1ccn2c(-c3ccc4c(=O)[nH]nc(CN)c4c3)cnc2c1` [Example 4-19, 4-(aminomethyl)-6-(7-methoxyimidazo[1,2-a]pyridin-3-yl)phthalazin-1(2H)-one], the IC50 was 380 nM under setting [1] and over 100000 nM under setting [2].

As for `Cc1cc(-c2ccc3c(=O)[nH]nc(CN)c3c2)cnc1C` [Example 3-4, 4-(aminomethyl)-6-(5,6-dimethylpyridin-3-yl)phthalazin-1(2H)-one], the IC50 reads like this: under setting [1], 1400 nM; under setting [2], 38300 nM.

For the molecule `COc1ccc(Oc2cncc(-c3ccc4c(=O)[nH]nc(CN)c4c3)c2)cc1` [Example 4-77, 4-(aminomethyl)-6-(5-(4-methoxyphenoxy)pyridin-3-yl)phthalazin-1(2H)-one], the IC50 reads like this: under setting [1], 1.1 nM; under setting [2], 96 nM.

Consider `N#CCc1ccc2c(CN)n[nH]c(=O)c2c1` [Example 13-1, 2-[1-(aminomethyl)-4-oxo-3H-phthalazin-6-yl]acetonitrile], for which the IC50 reads like this: under setting [1], 25000 nM; under setting [2], 89600 nM.

With `Cc1ncc(-c2ccc3c(=O)[nH]nc(CN)c3c2)n1C` [Example 4-4, 4-(aminomethyl)-6-(1,2-dimethyl-1H-imidazol-5-yl)phthalazin-1(2H)-one], the IC50 under setting [1] was determined as 230 nM and the IC50 under setting [2] worked out at 5910 nM.

For `COc1ccccc1Oc1cncc(-c2ccc3c(=O)[nH]nc(CN)c3c2)c1` [Example 4-78, 4-(aminomethyl)-6-(5-(2-methoxyphenoxy)pyridin-3-yl)phthalazin-1(2H)-one], the IC50 came to 0.5 nM under setting [1] and 66 nM under setting [2].

In the case of `N#Cc1ccc(Oc2cncc(-c3ccc4c(=O)[nH]nc(CN)c4c3)c2)cc1` [Example 7-6, 4-((5-(4-(aminomethyl)-1-oxo-1,2-dihydrophthalazin-6-yl)pyridin-3-yl)oxy)benzonitrile], the IC50 stood at 18 nM under setting [1] and 577 nM under setting [2].

As to `NCc1n[nH]c(=O)c2ccc(-c3cncc(Oc4ncccn4)c3)cc12` [Example 4-64, 4-(aminomethyl)-6-(5-(pyrimidin-2-yloxy)pyridin-3-yl)phthalazin-1(2H)-one], the IC50 under setting [1] was determined as 230 nM and the concentration for half-maximal inhibition (IC50) under setting [2] worked out at 4110 nM.

Consider `Cc1c(-c2ccc3c(=O)[nH]nc(CN)c3c2)cncc1C1CC1` [Example 4-5, 4-(aminomethyl)-6-(5-cyclopropyl-4-methylpyridin-3-yl)phthalazin-1(2H)-one], for which the IC50 is 150 nM under setting [1] and 1730 nM under setting [2].

Turning to `Cc1ccc2ncc(-c3ccc4c(=O)[nH]nc(CN)c4c3)n2n1` [Example 4-17, 4-(aminomethyl)-6-(6-methylimidazo[1,2-b]pyridazin-3-yl)phthalazin-1(2H)-one], the IC50 came to 150 nM under setting [1] and 2050 nM under setting [2].

Take `NCc1n[nH]c(=O)c2ccc(-c3cncc4[nH]ccc34)cc12` [Example 3-55, 4-(aminomethyl)-6-(1H-pyrrolo[2,3-c]pyridin-4-yl)phthalazin-1(2H)-one]: the IC50 by setting is: under setting [1], 83 nM; under setting [2], 1870 nM.

Regarding `Cn1ncc(-c2ccc3c(=O)[nH]nc(CN)c3c2)c1-c1cccc(Cl)c1` [Example 4-92, 4-(aminomethyl)-6-(5-(3-chlorophenyl)-1-methyl-1H-pyrazol-4-yl)phthalazin-1(2H)-one], the IC50 is, setting by setting: under setting [1], 3.5 nM; under setting [2], 137 nM.

For the molecule `CCOc1cncc(-c2ccc3c(=O)[nH]nc(CN)c3c2)c1` [Example 3-49, 4-(aminomethyl)-6-(5-ethoxypyridin-3-yl)phthalazin-1(2H)-one], the IC50 turned out to be 110 nM under setting [1] and 3850 nM under setting [2].

For the molecule `NCc1n[nH]c(=O)c2ccc(-c3cnn4c3CN(C(=O)C3CC3)CC4)cc12` [Example 4-85, 4-(aminomethyl)-6-(5-(cyclopropanecarbonyl)-4,5,6,7-tetrahydropyrazolo[1,5-a]pyrazin-3-yl)phthalazin-1(2H)-one], the IC50 under setting [1] was 29 nM and the IC50 under setting [2] turned out to be 1910 nM.

On to `Cc1ccc(-c2c(-c3ccc4c(=O)[nH]nc(CN)c4c3)cnn2C)cn1` [Example 4-99, 4-(aminomethyl)-6-(1-methyl-5-(6-methylpyridin-3-yl)-1H-pyrazol-4-yl)phthalazin-1(2H)-one], for which the IC50 by setting is: under setting [1], 15 nM; under setting [2], 547 nM.

On to `Cc1nn(C)c(C)c1-c1ccc2c(=O)[nH]nc(CN)c2c1` [Example 3-24, 4-(aminomethyl)-6-(1,3,5-trimethyl-1H-pyrazol-4-yl)phthalazin-1(2H)-one], for which the IC50 runs as follows: under setting [1], 20000 nM; under setting [2], over 100000 nM.

As to `Cc1cccc(Sc2cncc(-c3ccc4c(=O)[nH]nc(CN)c4c3)c2)c1` [Example 4-61, 4-(aminomethyl)-6-(5-(m-tolylthio)pyridin-3-yl)phthalazin-1(2H)-one], the IC50 was 3 nM under setting [1] and 149 nM under setting [2].

Take `NCc1n[nH]c(=O)c2ccc(-c3cnn4c3CN(C(=O)C35CC(C3)C5)CC4)cc12` [Example 4-89, 4-(aminomethyl)-6-(5-(bicyclo[1.1.1]pentane-1-carbonyl)-4,5,6,7-tetrahydropyrazolo[1,5-a]pyrazin-3-yl)phthalazin-1(2H)-one]: the IC50 worked out at 64 nM under setting [1] and 1220 nM under setting [2].
